This passage reports Ki results from US7514448B2, “Azaindoles useful as inhibitors of rock and other protein kinases” (Vertex Pharmaceuticals Incorporated, priority 2004, dated 2009).

Common to all, as to format: biochemical
One assay has as its target ROCK I (AA 6-553) (Homo sapiens, UniProt Q13464). Nature of the assay: ROCK inhibition assay, coupled enzyme system ("Enzyme"). The note with it: enzyme-linked assay; average Ki if more than one determined. The protocol:
Reactions were carried out in a solution containing 100 mM HEPES (pH 7.5), 10 mM MgCl2, 25 mM NaCl, 2 mM DTT and 1.5% DMSO.
(§1) If more than one value of Ki has been determined, the average Ki is indicated. If no value is indicated, then the Ki was not determined.

Another assay has as its target PKA (Homo sapiens, UniProt P17612). Nature of the assay: PKA inhibition assay, coupled enzyme. The note with it: average Ki if more than one determined. As for the experimental part:
Compounds were screened for their ability to inhibit PKA using a standard coupled enzyme assay (Fox et al., Protein Sci, 1998, 7, 2249). Assays were carried out in a mixture of 100 mM HEPES (pH 7.5), 10 mM MgCl2, 25 mM NaCl, 1 mM DTT and 3% DMSO. Final substrate concentrations in the assay were 50 μM ATP (Sigma Chemicals) and 80 μM peptide (Kemptide, American Peptide, Sunnyvale, Calif.). Assays were carried out at 30° C. and 18 nM PKA. Final concentrations of the components of the coupled enzyme system were 2.5 mM phosphoenolpyruvate, 300 μM NADH, 30 μg/ml pyruvate kinase and 10 μg/ml lactate dehydrogenase.
An assay stock buffer solution was prepared containing all of the reagents listed above, with the exception of ATP, and the test compound of the present invention. […] The plate was preincubated for 10 minutes at 30° C. and the reaction initiated by addition of 5 μl of ATP (final concentration 50 μM). Initial reaction rates were determined with a Molecular Devices SpectraMax Plus plate reader over a 15 minute time course. IC50 and Ki data were calculated from non-linear regression analysis using the Prism software package (GraphPad Prism version 3.0a for Macintosh, GraphPad Software, San Diego Calif., USA).

For the next assay, the target named is ROCK (Homo sapiens, UniProt Q13464). Nature of the assay: ROCK radioactive assay ("33P"). The note with it: radioactive assay; average Ki if more than one determined; read-out: ROCK 33P Ki.
Sequence of ROCK (Q13464 whole entry): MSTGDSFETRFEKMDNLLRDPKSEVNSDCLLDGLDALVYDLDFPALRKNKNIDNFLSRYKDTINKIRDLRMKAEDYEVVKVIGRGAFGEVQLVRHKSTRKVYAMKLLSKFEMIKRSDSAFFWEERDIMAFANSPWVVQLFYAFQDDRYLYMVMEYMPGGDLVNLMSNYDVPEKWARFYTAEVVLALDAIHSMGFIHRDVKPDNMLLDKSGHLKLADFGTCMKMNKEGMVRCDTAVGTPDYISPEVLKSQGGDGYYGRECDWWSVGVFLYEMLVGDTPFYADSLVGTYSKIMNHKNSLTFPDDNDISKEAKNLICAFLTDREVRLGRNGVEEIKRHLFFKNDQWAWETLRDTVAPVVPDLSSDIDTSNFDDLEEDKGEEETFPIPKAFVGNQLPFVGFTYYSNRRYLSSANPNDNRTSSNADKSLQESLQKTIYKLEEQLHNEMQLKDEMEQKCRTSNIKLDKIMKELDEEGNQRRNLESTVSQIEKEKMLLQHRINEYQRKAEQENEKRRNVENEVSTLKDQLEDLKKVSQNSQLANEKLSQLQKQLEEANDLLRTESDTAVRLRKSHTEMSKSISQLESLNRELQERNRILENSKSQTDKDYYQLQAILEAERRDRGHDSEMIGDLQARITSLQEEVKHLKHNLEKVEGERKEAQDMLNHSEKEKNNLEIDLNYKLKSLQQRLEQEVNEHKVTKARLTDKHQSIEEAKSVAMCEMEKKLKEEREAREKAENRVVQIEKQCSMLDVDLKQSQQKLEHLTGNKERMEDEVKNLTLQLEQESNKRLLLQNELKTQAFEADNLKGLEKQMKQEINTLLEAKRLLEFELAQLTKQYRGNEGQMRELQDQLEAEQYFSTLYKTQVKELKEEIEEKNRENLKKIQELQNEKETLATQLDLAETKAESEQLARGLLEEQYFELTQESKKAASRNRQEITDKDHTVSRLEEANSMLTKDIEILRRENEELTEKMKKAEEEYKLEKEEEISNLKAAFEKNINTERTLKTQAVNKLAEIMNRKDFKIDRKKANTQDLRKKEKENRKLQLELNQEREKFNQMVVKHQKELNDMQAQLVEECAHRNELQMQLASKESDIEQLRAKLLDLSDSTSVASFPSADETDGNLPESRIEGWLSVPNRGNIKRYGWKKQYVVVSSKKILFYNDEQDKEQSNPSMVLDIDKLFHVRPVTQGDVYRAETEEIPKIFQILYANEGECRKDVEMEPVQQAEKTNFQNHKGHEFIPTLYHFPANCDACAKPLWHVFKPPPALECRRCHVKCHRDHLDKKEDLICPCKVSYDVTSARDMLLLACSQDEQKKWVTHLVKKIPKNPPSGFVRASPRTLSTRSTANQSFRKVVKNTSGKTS
Source text: as §1

Sequence of ROCK I (AA 6-553) (Q13464 6-553, species assumed): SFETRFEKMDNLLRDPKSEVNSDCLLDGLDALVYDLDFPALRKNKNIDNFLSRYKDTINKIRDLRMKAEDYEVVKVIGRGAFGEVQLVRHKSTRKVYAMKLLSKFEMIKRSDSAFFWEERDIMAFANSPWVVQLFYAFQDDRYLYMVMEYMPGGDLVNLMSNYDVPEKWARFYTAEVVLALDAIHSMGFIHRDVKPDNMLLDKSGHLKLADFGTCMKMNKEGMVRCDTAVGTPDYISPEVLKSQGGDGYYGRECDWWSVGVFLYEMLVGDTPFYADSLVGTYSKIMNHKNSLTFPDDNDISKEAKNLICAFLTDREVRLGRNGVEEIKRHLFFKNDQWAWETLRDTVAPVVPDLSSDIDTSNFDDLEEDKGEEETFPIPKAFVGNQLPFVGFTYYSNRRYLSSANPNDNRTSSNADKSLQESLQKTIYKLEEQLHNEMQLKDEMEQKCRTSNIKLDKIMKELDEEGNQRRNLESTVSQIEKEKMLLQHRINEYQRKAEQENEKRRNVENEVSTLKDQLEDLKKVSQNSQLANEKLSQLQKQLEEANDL

Broadly, the Ki is a dissociation constant, usually derived from enzyme kinetics or from competition with a known ligand. For `O=C(Cc1cccc(OCCCC2CCNCC2)c1)N(c1nc(-c2c[nH]c3ncccc23)cs1)C1CC1` [II-76], the Ki is under 500 nM on ROCK I (AA 6-553) and 500 to 5000 nM on PKA.
In the same order, the values of `O=C(CCc1ccccc1)Nc1nc(-c2c[nH]c3ncccc23)cs1` [I-7] are under 500 nM and under 500 nM.
On the same counts, the results for `O=C(Cc1ccc2c(c1)OCO2)Nc1nc(-c2c[nH]c3nccc(F)c23)cs1` [II-18] are under 500 nM and under 500 nM.
In the case of `COc1cccc(CNC(=O)c2ccc(-c3c[nH]c4ncccc34)s2)c1` [II-30], the Ki at ROCK I (AA 6-553) and on PKA was under 500 nM each time.
For the compound `O=C(Cc1cccc(OCCCC2CCNCC2)c1)Nc1nc(-c2c[nH]c3nccc(F)c23)cs1` [II-17], the Ki is under 500 nM on ROCK I (AA 6-553) and 500 to 5000 nM at PKA.
On to `O=C(Cc1ccccc1)Nc1csc(-c2c[nH]c3ncccc23)n1` [II-62], for which the Ki at ROCK I (AA 6-553) and at PKA was under 500 nM in each case.
With `O=C(Cc1ccccc1)Nc1nnc(-c2c[nH]c3ncccc23)s1` [II-8], the Ki on ROCK I (AA 6-553) and on PKA was under 500 nM throughout.
For `O=C(CCc1ccccc1)Nc1nc(-c2c[nH]c3nccc(F)c23)cs1` [II-15], the Ki on ROCK I (AA 6-553) and on PKA was under 500 nM in each case.
Turning to `O=C(Cc1ccccc1F)N(c1nc(-c2c[nH]c3ncccc23)cs1)C1CC1` [II-44], the Ki on ROCK I (AA 6-553) and on PKA was under 500 nM in each case.
With `CS(=O)(=O)Nc1cccc(CC(=O)Nc2cc(-c3c[nH]c4ncccc34)cs2)c1` [II-33], the Ki on ROCK I (AA 6-553) and on PKA was under 500 nM in each case.
As to `O=C(Cc1cccc(OCCN2CCNCC2)c1)N(c1nc(-c2c[nH]c3ncccc23)cs1)C1CC1` [II-85], the Ki on ROCK I (AA 6-553) and on PKA was under 500 nM throughout.
As for `CCN(CC)S(=O)(=O)c1cccc(CC(=O)Nc2nc(-c3c[nH]c4nccc(Cl)c34)cs2)c1` [II-93], the Ki on ROCK I (AA 6-553) and on PKA was 500 to 5000 nM in each case.
`CCN(CC)S(=O)(=O)c1cccc(CC(=O)Nc2nnc(-c3c[nH]c4ncccc34)s2)c1` [II-64]: the Ki at ROCK I (AA 6-553) and at PKA was 500 to 5000 nM each time.
For `Cc1sc(NC(=O)Cc2cccc(NS(C)(=O)=O)c2)nc1-c1c[nH]c2ncccc12` [II-100], the Ki was under 500 nM on ROCK I (AA 6-553) and 500 to 5000 nM at PKA.
In the same order, the values of `O=C(Cc1cccc(S(=O)(=O)N2CCOCC2)c1)Nc1nc(-c2c[nH]c3nccc(F)c23)cs1` [II-66] are under 500 nM and 500 to 5000 nM.
Consider `CN1CCN(CCCOc2cccc(CC(=O)Nc3nc(-c4c[nH]c5nccc(F)c45)cs3)c2)CC1` [II-37], for which the Ki at ROCK I (AA 6-553) was under 500 nM; on PKA, 500 to 5000 nM.
For `CC(C)(C)OC(=O)N1CCC(CCCOc2cccc(CC(=O)Nc3nc(-c4c[nH]c5ncccc45)cs3)c2)CC1` [I-9], the Ki at ROCK I (AA 6-553) was under 500 nM; on PKA, 500 to 5000 nM.
Turning to `O=C(Cc1cccc(S(=O)(=O)N2CCOCC2)c1)Nc1nc(-c2c[nH]c3ncc(Cl)cc23)cs1` [II-105], the Ki was under 500 nM at ROCK I (AA 6-553) and 500 to 5000 nM on PKA.
In the same order, the values of `CCS(=O)(=O)Nc1ccc(CC(=O)Nc2nc(-c3c[nH]c4ncccc34)cs2)c(Cl)c1` [II-35] are under 500 nM and 500 to 5000 nM.
In the same order, the values of `CCN(CC)S(=O)(=O)c1cccc(CC(=O)Nc2nc(-c3c[nH]c4ncccc34)cs2)c1` [II-24] are under 500 nM and 500 to 5000 nM.
As to `O=C(NCCc1ccccc1)c1ccc(-c2c[nH]c3ncccc23)s1` [II-31], the Ki on ROCK I (AA 6-553) and at PKA was under 500 nM throughout.
Consider `CC(C)S(=O)(=O)Nc1ccc(CC(=O)Nc2nc(-c3c[nH]c4ncccc34)cs2)c(Cl)c1` [II-48], for which the Ki at ROCK I (AA 6-553) and on PKA was under 500 nM each time.
Regarding `O=C(Cc1ccc(F)cc1F)N(c1nc(-c2c[nH]c3ncccc23)cs1)C1CC1` [II-45], the Ki on ROCK I (AA 6-553) and at PKA was under 500 nM each time.
Take `O=C(Cc1cccc(S(=O)(=O)N2CCCCC2)c1)Nc1nc(-c2c[nH]c3ncccc23)cs1` [II-112]: the results for the Ki on ROCK I (AA 6-553) and on PKA were under 500 nM and 500 to 5000 nM, respectively.
Turning to `COc1cccc(CC(=O)Nc2cc(-c3c[nH]c4ncccc34)cs2)c1` [II-23], the Ki on ROCK I (AA 6-553) and on PKA was under 500 nM in each case.
For `O=C(Cc1ccccc1)Nc1nc(-c2c[nH]c3nccc(Cl)c23)cs1` [II-91], the Ki at ROCK I (AA 6-553) and on PKA was under 500 nM in each case.
For the compound `O=C(Cc1cc2c(cc1Cl)OCO2)Nc1nc(-c2c[nH]c3ncccc23)cs1` [I-13], the inhibition constant (Ki) at ROCK I (AA 6-553) and on PKA was under 500 nM in each case.
`O=C(Cc1cccc(S(=O)(=O)NCC2CCCO2)c1)Nc1nc(-c2c[nH]c3ncccc23)cs1` (stereo not shown) [II-72]: the Ki on ROCK I (AA 6-553) and at PKA was under 500 nM throughout.
For `CC(C)N1CCN(S(=O)(=O)c2cccc(CC(=O)Nc3nc(-c4c[nH]c5ncccc45)cs3)c2)CC1` [II-89], the Ki at ROCK I (AA 6-553) is under 500 nM; at PKA, 500 to 5000 nM.
On to `O=C(Cc1cccc(S(=O)(=O)N2CCNCC2)c1)Nc1nc(-c2c[nH]c3ncccc23)cs1` [II-25], for which the Ki at ROCK I (AA 6-553) and at PKA was under 500 nM in each case.
`COc1cccc(C2CCCN(c3nc(-c4c[nH]c5ncccc45)cs3)C2=O)c1` (stereo not shown) [II-96]: the Ki at ROCK I (AA 6-553) and on PKA was under 500 nM throughout.
With `O=C(Cc1ccccc1F)Nc1nnc(-c2c[nH]c3ncccc23)s1` [I-23], the Ki on ROCK I (AA 6-553) and at PKA was under 500 nM in each case.
Turning to `O=C(Cc1cccc(OCCCN2CCNCC2)c1)N(c1nc(-c2c[nH]c3ncccc23)cs1)C1CC1` [II-83], the results for the Ki on ROCK I (AA 6-553) and at PKA were under 500 nM and 500 to 5000 nM, respectively.
On the same counts, the results for `O=C(NCc1cccc(S(=O)(=O)N2CCOCC2)c1)c1ccc(-c2c[nH]c3ncccc23)s1` [II-65] are under 500 nM and under 500 nM.
On the same counts, the results for `CCN(CC)S(=O)(=O)c1cccc(CC(=O)Nc2csc(-c3c[nH]c4ncccc34)n2)c1` [II-63] are under 500 nM and 500 to 5000 nM.
In the same order, the values of `COc1cccc(CC(=O)Nc2csc(-c3c[nH]c4ncccc34)n2)c1` [II-55] are under 500 nM and under 500 nM.
On to `O=C(Cc1ccccc1)Nc1nc(-c2c[nH]c3ncc(Cl)cc23)cs1` [II-102], for which the Ki at ROCK I (AA 6-553) and on PKA was under 500 nM throughout.
For `CS(=O)(=O)Nc1ccc(F)c(CC(=O)Nc2nc(-c3c[nH]c4ncccc34)cs2)c1` [II-82], the Ki at ROCK I (AA 6-553) and on PKA was under 500 nM each time.
Consider `CS(=O)(=O)Nc1cccc(CNC(=O)c2cc(-c3c[nH]c4ncccc34)cs2)c1` [II-106], for which the Ki on ROCK I (AA 6-553) and on PKA was under 500 nM each time.
In the case of `O=C(Cc1ccccc1F)Nc1csc(-c2c[nH]c3ncccc23)n1` [II-60], the Ki at ROCK I (AA 6-553) and at PKA was under 500 nM in each case.
Turning to `CN1CCN(CCCOc2cccc(CC(=O)N(c3nc(-c4c[nH]c5ncccc45)cs3)C3CC3)c2)CC1` [II-84], the Ki on ROCK I (AA 6-553) was under 500 nM; on PKA, 500 to 5000 nM.
In the same order, the values of `COc1cccc(CNC(=O)c2cc(-c3c[nH]c4ncccc34)cs2)c1` [II-71] are under 500 nM and under 500 nM.
On the same counts, the results for `O=C(NCCc1cccc(F)c1)c1ccc(-c2c[nH]c3ncccc23)s1` [II-32] are under 500 nM and under 500 nM.
On the same counts, the results for `CS(=O)(=O)Oc1cccc(CC(=O)Nc2nc(-c3c[nH]c4ncccc34)cs2)c1` [I-10] are under 500 nM and under 500 nM.
For `O=C(Cc1ccc(F)cc1)Nc1nnc(-c2c[nH]c3ncccc23)s1` [II-7], the Ki on ROCK I (AA 6-553) and on PKA was under 500 nM in each case.
On to `CS(=O)(=O)c1ccc(CC(=O)N(c2nc(-c3c[nH]c4ncccc34)cs2)C2CC2)cc1` [II-73], for which the values for the Ki on ROCK I (AA 6-553) and on PKA were under 500 nM and 500 to 5000 nM, respectively.
Compound `O=C(Cc1cccc(OCCCC2CCNCC2)c1)Nc1nnc(-c2c[nH]c3ncccc23)s1` [II-22] had a Ki at ROCK I (AA 6-553) of under 500 nM.
Take `CC(C(=O)Nc1nc(-c2c[nH]c3ncccc23)cs1)S(C)(=O)=O` (stereo not shown) [II-226]: the Ki on ROCK and at PKA was under 500 nM in each case.
For the compound `CN[C@@H](Cc1ccccc1)C(=O)Nc1nc(-c2c[nH]c3ncccc23)cs1` [II-178], the Ki on ROCK and at PKA was under 500 nM each time.
As for `N[C@@H](C(=O)Nc1nc(-c2c[nH]c3ncccc23)cs1)c1ccccc1` [II-214], the Ki at ROCK and on PKA was under 500 nM throughout.
For `O=C(c1nc(-c2c[nH]c3ncccc23)cs1)N1CCNCC1` [II-181], the Ki at ROCK and on PKA was under 500 nM in each case.
The compound `COc1cccc(CNC(=O)c2csc(-c3c[nH]c4ncccc34)n2)c1` [II-21] yielded a Ki at ROCK I (AA 6-553) of under 500 nM.
Regarding `O=C(Nc1nc(-c2c[nH]c3ncccc23)cs1)C1CCOCC1` [II-175], the Ki on ROCK and at PKA was under 500 nM throughout.
`CC(=O)Nc1nc(-c2c[nH]c3ncccc23)cs1` [II-134]: the Ki on ROCK is under 500 nM; on PKA, 500 to 5000 nM.
